# Measured values from patent US9375477B2 (GALDERMA RESEARCH & DEVELOPMENT, priority 2012, dated 2016).
# Assay: In vitro cutaneous penetration on human skin (Franz cell)
# Assay type: in vitro ADME
# Settings: 16 hours after application; the 3 formulae evaluated (Examples 2 and 9, reference gel)
# Experimental: The cutaneous penetration studies performed on the formulations of the invention containing an active principle of the retinoid class were performed in vitro on whole human abdominal skin after excision, this skin being mounted on a Franz cell.
# After topical application of a given amount of the formulation to the surface of the skin, the penetration of the active principle is measured 16 hours after application.
# The amount of active principle of the retinoid class is measured in the various skin compartments: stratum corneum, epidermis, dermis and also in the receiving liquid.
# The bioanalysis was carried out by positive electrospray ionization tandem mass spectrometry, and using a Xevo machine (Waters).
# The quantification limit for compound A is 0.5 ng/mL. The LC/MS/MS conditions developed made it possible to detect up to 0.1% of the dose applied in each of the compartments (dose not absorbed, stratum, epidermis, dermis and receiving liquid). The appropriateness, accuracy and repeatability of the method were checked in each of the matrices, and made it possible to validate the bioanalysis method.
# In this type of “single point” study, the parameters retained are: • a. the distribution profile in the various compartments (qualitative data) • b. the penetration into the epidermis+dermis compartment (numerical data)
compound,measurement,value
"CC(C)(C)c1cc(-c2cc(-c3ccc(C(=O)O)cc3)ccc2OCCO)ccc1N1CCCC1 [Compound A, 3″-tert-butyl-4′-(2-hydroxyethoxy)-4″-pyrrolidin-1-yl-[1,1′; 3′,1″]-terphenyl-4-carboxylic acid]",Compound A in the receiving liquid,not detected
